A short description of assay [1]: A High Throughput Confirmatory Assay used to Identify Novel Compounds that Inhibit Mycobacterium Tuberculosis in the absence of Glycerol. Format: functional.
The target of assay [2] is Induced myeloid leukemia cell differentiation protein Mcl-1 (Homo sapiens, UniProt Q07820). Format: functional.
Assay [3] addresses T1, NADPH oxidase 1 (Homo sapiens, UniProt Q9Y5S8).
T1 sequence (Q9Y5S8 whole entry): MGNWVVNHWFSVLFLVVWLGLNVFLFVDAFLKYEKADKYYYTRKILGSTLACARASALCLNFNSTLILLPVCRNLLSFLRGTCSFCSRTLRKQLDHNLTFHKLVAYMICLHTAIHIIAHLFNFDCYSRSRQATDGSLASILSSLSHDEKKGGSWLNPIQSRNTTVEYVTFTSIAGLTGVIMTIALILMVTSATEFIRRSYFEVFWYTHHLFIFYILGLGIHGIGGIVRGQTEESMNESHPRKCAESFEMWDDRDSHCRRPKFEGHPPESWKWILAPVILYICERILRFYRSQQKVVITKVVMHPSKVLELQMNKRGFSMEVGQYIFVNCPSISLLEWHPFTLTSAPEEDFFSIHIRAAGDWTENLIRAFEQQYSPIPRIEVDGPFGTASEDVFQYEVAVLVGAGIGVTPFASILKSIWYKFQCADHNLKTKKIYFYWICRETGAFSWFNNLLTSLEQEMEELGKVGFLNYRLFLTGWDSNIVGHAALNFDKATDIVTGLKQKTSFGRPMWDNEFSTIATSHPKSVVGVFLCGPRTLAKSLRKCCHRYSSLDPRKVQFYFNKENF
The experiment in a line: Luminescence-based cell-based dose response assay to identify inhibitors of NADPH oxidase 1 (NOX1). Format: functional.

The target in assay [4] is T2, Neuropeptide Y receptor type 2 (Homo sapiens, UniProt P49146).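 Note: HEK293 cells expressing the receptor and a CNG channel; stimulus was NPY near EC95 followed by isoproterenol to raise cAMP; antagonist potency measured as restoring cAMP signal that NPY suppresses.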
T2 sequence (P49146 whole entry): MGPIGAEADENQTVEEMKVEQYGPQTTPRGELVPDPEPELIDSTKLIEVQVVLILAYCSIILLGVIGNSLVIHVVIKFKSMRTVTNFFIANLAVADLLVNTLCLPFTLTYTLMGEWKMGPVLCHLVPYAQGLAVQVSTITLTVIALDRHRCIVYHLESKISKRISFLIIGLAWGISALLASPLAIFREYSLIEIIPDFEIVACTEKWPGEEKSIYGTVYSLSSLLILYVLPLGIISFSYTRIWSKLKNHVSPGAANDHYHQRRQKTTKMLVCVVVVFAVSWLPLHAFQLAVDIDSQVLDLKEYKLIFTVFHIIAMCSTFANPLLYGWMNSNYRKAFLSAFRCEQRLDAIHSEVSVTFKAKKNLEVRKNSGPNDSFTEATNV
Type of assay: functional, cell-based.

Assay [5] concerns the target T3, Neuropeptide Y receptor type 1 (Homo sapiens, UniProt P25929).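 Note: HEK293 cells with a CNG channel challenged with NPY then isoproterenol; potency as antagonist that reverses NPY suppression of cAMP signal.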
T3 sequence (P25929 whole entry): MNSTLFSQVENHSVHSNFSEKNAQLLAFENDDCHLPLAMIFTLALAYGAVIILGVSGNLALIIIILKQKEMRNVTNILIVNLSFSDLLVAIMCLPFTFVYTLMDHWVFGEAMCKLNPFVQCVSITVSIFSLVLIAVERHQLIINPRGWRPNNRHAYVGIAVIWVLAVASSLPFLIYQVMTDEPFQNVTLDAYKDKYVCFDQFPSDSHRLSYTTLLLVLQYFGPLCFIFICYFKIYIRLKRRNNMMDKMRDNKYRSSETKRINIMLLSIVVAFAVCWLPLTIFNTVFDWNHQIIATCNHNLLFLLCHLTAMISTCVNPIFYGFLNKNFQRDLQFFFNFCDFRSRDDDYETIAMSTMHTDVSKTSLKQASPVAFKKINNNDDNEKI
Format: functional.

The nature of assay [6]: growth suppression of beta-catenin-knockout colon cells, dose response, cell-based, HCT116, human colon tumor (AID 1045).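 Note: HCT116 colon tumor cells with beta catenin knocked out; cells exposed to compound for 60 hours.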 Format: functional.
The nature of assay [7]: growth suppression of PTEN-null colon cells, dose response, cell-based, HCT116 PTEN knockout (AID 1047).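 Note: HCT116 colon tumor cells with PTEN knocked out; cells exposed to compound for 60 hours before readout; potency for loss of cell viability measured by luminescence.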 Format: functional.
Assay [8] can be described thus: inhibitors of clade B AD8 Env fusion, dose response, cell-based, cherry-pick (AID 652062).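 Note: luciferase signal from cell-cell fusion driven by HIV-1 clade B AD8 Env; potency is for inhibitors of fusion seen as a drop in luminescence.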 Format: functional.
Assay [9] is described as follows: LGR2 antagonists, dose response, cell-based, HEK293, CRE-luciferase reporter, cherry pick, set 2 (AID 743343).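 Note: transfected cells were stimulated with diluted bursicon conditioned medium after compound addition.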 Format: functional. A general note: In a reporter assay the amount or activity of a reporter protein is the signal.
Assay [10] can be described thus: Shn3 3'UTR reporter inhibitors, dose response, cell-based, Clone20 osteoblasts, firefly luciferase, cherry-picked (AID 624132).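 Note: firefly luciferase luminescence from reporter carrying the Shn3 3'UTR in osteoblasts.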 Format: functional.
Assay [11] is described as follows: off-target signal loss in HeLa-CEM21 co-culture – HeLa F-luc CTL cells, cherry-picked, counter-screen for HIV-1 Env fusion inhibitor project, dose response (AID 652040).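 Note: potency for signal decrease marking cytotoxic or nonspecific inhibition.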 Format: functional, cell-based.
A short description of assay [12]: HepG2 cell cytotoxicity, dose response, cytotoxicity control, plate reader, cherry-pick, antagonist series (AID 743416). Format: functional, cell-based.
The nature of assay [13]: cytotoxicity in HEK-293T cells, dose response, cytotoxicity control for TCR NF-kB inhibitor project, luminescence, T-cell screen hits (AID 489026).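 Note: cells exposed to compound about 14 hours before the viability readout.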 Type of assay: functional, cell-based.
The nature of assay [14]: inhibitors of HIV Env-driven cell fusion, dose response, cherry-pick (AID 652057). Type of assay: functional, cell-based.
Assay [15] can be described thus: reduction of Shn3 3'UTR firefly luciferase signal, dose response, Schnurri-3 inhibitor project, cell-based, Clone20 osteoblasts, cherry-pick, set 2 (AID 720490).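 Note: actives lower the luminescence signal as inhibitors.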 Format: functional.
Assay [16] is described as follows: MC4R antagonists, dose response, counter-screen for LGR2 antagonist project, cell-based, plate reader, cherry pick (AID 743444).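 Note: transfected HEK 293 cells stimulated with alpha-MSH peptide; potency of inhibitors of the alpha-MSH evoked signal.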 Format: functional. On the technique in general: A counterscreen serves to expose hits that act by an unwanted route or on another target.
Assay [17] can be described thus: Luminescence-based counterscreen assay for KLF5 inhibitors: dose response cell-based high throughput screening assay to identify cytotoxic compounds using the IEC-6 intestinal epithelial cell line. [Related pubchem assays: 1700 (Primary screen.), 1834 (Confirmation screen.), 1858 (Summary AID.), 1905 (Counterscreen.)]. Format: functional.
Assay [18] concerns the target T4, Bcl-2-like protein 10 (Homo sapiens, UniProt Q9HD36).
T4 sequence (Q9HD36 whole entry): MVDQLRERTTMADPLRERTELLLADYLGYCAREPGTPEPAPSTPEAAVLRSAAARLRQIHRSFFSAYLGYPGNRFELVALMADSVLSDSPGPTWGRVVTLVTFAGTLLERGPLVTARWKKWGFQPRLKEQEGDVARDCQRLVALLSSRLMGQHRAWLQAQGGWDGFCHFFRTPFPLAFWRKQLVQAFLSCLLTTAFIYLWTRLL
The experiment in a line: Biochemical TR3 FP assay of Bcl-B inhibitor potency, EC50 (AID 1243). Format: functional.

Assay [19] concerns the target Serine/threonine-protein phosphatase PP1-alpha catalytic subunit (Homo sapiens, UniProt P62136). The experiment in a line: PP1 phosphatase inhibitors, dose response, biochemical, fluorescence (AID 2403).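 Note: phosphatase turnover of OMFP into fluorescent 3-O-methylfluorescein.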
For assay [20], the system named is Streptococcus sp. 'group A'. The assay is described as follows: growth inhibition of control SK(-) GAS strain, dose response, counter-screen for streptokinase expression inhibitor project, luminescence, kanamycin, BacTiterGlo, confirmation (AID 1900). Format: functional, organism-based.
For assay [21], the target named is T5, Streptokinase A (Streptococcus pyogenes serotype M1, UniProt P10520).
T5 sequence (P10520 whole entry): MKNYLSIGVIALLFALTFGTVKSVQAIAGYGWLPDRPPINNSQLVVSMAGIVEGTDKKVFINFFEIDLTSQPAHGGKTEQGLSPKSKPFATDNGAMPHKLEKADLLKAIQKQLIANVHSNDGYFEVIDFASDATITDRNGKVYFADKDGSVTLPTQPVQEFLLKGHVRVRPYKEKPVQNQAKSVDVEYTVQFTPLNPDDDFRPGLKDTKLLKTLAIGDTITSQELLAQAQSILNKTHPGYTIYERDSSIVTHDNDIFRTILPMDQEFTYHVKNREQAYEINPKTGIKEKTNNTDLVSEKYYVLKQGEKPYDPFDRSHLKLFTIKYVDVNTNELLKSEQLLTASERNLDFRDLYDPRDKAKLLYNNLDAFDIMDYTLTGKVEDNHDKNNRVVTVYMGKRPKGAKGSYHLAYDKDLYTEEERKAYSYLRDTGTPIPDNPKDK
The assay is described as follows: S. pyogenes streptokinase expression inhibitors, potency, dose response, plasminogen activation absorbance, OD405 (AID 1914).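 Note: secreted streptokinase activity via plasminogen activation per viability signal from cell pellet.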 Format: functional, Streptococcus pyogenes M1 GAS.

For assay [22], the system named is Streptococcus. The experiment in a line: Group A Streptococcus viability loss, dose response, counter-screen for streptokinase expression inhibitor project, luminescence, BacTiterGlo (AID 1915).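 Note: potency for reduction of bacterial viability or growth.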 Type of assay: functional, organism-based.
In assay [23] the target is Serine/threonine-protein phosphatase (Homo sapiens, UniProt Q9BPW0). The experiment in a line: Counterscreen for inhibitors of PP1: fluorescence-based biochemical high throughput dose response assay to identify inhibitors of Protein Phosphatase 5 (PP5). [Related pubchem assays: 2034 (Summary (PP5 inhibitors)), 1987 (PP5 inhibitors in singlate), 2235 (PP1 inhibitors in singlate)].

Active and inactive are the calls of the source.

Serine/threonine-protein phosphatase PP1-alpha catalytic subunit, sequence (P62136 whole entry): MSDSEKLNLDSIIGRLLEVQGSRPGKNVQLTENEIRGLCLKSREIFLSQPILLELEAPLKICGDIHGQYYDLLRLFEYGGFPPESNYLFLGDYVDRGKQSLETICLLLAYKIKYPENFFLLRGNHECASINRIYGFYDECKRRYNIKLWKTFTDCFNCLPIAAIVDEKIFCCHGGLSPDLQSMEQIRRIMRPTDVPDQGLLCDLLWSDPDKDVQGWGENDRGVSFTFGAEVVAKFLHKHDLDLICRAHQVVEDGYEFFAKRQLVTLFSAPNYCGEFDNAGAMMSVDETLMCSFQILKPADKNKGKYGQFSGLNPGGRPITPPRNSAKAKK
Induced myeloid leukemia cell differentiation protein Mcl-1, sequence (Q07820 whole entry): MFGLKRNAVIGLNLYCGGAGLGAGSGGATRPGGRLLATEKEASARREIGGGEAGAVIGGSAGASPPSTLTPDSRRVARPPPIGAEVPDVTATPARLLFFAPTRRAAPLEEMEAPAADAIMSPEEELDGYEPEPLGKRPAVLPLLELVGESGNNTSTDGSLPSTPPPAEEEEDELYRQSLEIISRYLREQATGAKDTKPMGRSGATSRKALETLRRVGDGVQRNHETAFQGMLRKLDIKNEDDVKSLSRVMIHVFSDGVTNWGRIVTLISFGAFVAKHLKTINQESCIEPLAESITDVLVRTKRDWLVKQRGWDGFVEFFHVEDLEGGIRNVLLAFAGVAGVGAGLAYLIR
Serine/threonine-protein phosphatase, sequence (Q9BPW0 whole entry): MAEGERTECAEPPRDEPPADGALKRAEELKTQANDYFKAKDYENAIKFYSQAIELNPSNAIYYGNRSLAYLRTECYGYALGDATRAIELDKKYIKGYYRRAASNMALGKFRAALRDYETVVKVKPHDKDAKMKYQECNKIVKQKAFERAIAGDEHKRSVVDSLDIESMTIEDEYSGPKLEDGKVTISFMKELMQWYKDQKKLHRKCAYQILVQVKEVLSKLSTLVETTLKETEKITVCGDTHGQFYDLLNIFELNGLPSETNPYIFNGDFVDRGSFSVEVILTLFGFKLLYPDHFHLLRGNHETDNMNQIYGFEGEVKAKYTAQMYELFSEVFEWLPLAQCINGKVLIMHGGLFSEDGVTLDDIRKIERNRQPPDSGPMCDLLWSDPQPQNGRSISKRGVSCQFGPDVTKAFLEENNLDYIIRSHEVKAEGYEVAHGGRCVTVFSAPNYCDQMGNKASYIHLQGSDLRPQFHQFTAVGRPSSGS

The IC50 is the concentration that inhibits the measured activity by half. Regarding `COC(=O)[C@@H](NC(=O)O[C@@H]1C(=O)c2ccc(OC)cc2O[C@H]1c1cccc(C(F)(F)F)c1)C(C)C`, the 50% inhibitory concentration (IC50) in assay [1] was > 100 µM (active).

As to `CCN(CC)c1ccc(NC(=O)Nc2cccc(C(C)=O)c2)cc1`, the 50% inhibitory concentration (IC50) in [2] was 3.13 µM (not active); in assay [3] it was 0.083 µM (active).

What is called EC50 is the midpoint of the concentration-response curve. As to `Cc1cccc(N=C(S)N(CCN(C)C)Cc2cc3cc(C)cc(C)c3nc2O)c1`, the results for the IC50 in assay [4] and in [5] were 14.3 µM (not active) and 6.32 µM (active), respectively. For the same molecule, the EC50 was 18.1 µM (active) in assay [6] and 33.6 µM (active) in assay [7].

The term AC50 denotes the midpoint of the concentration-response curve, whichever way the signal moves. Take `O=C(NCCc1ccccc1)c1ccc2c(c1)OCCO2`: the AC50 in assay [8] was 3.07 µM (active); in [9], 0.801 µM (active); in assay [10], 2.16 µM (active); in assay [11] it was 4.51 µM (active); in assay [12], > 52 µM (inactive); in assay [14] it was 2.05 µM (active). Further, the half-maximal activity concentration (AC50) is 2.31 µM (active) in [15] and 0.885 µM (active) in [16]. Further, the IC50 in [13] was > 80 µM (inactive); in assay [17] it was > 39.8 µM (not active).

`O=C(O)C1Nc2c(cccc2[N+](=O)[O-])C2C=CCC12` (stereo not drawn): the EC50 in assay [18] was 1.2 µM (active).

Consider `O=S(=O)(Cc1cc(NCc2ccccc2)nc(-c2ccccn2)n1)c1ccccc1`, for which the half-maximal inhibitory concentration (IC50) in [19] is 7.88 µM (active); in assay [23] it was > 67 µM (not active). Besides, the EC50 was 21 µM (active) in [20], > 150 µM (not active) in [21] and > 150 µM (not active) in assay [22].
